Key:
[1] = target: T1, GABABR1a/GABABR2 heterodimer (Homo sapiens, UniProt O75899+Q9UBS5); assay: GTPγS35 radioligand filtration-binding assay for determination of agonist potency; assay type: biochemical; conditions: membranes of CHO K1 Flp-In cells expressing GABABR1a/GABABR2; compound alone
T1 construct: expressed in transfected cells; membrane preparation
Method: The potency and efficacy of the compounds acting as agonists at the GABAB receptor was also determined in a automated GTPγS^35 radioligand filtration-binding assay.
(§1) The GABAB receptor is a G-protein coupled receptor. Binding of a ligand activates the receptor leading to recruitment of G-protein and a substitution of the G-protein bound GDP to GTP. The G-protein becomes active. The G-protein is inactivated by hydrolysis of GTP to GDP. G-proteins are membrane bound and therefore present in membrane preparations.
(§2) In the GTPγS^35 assay, GTP is not present but instead GTPγS^35 where one of the phosphate groups are substituted to a sulphur group which cannot be hydrolysed. Upon activation of the receptor, radiolabelled GTPγS^35 replaces the GDP. The complex cannot be inactivated and the radiolabelled complex is accumulating. At the end of the assay, the reaction mixture is filtered through a membrane-binding filter. Excess GTPγS^35 is removed by washing and the membrane bound S^35, which correlates to the degree of receptor activation, is measured with a β-Liquid Scintillation Counter.
The human GABABR1a was subcloned into pIRESneo3 (Clontech) using GABABR1a construct as a template (refseqN NM001470). GABABR2 was subcloned into pCDNA5/FRT (Invitrogen) using GABABR2 construct as a template (refseqN NM005458). The Kozak sequence GCCACC was introduced before the start codon in both constructs.
For generation of stable cell lines, CHO K1 Flp-In cells (Invitrogen) were grown in DMEM/F 12 1:1 media supplemented with 10% FBS at 37° C. in a humidified CO2-incubator. The cells were detached with Accutase and 1.5 million cells were seeded into T75 flasks. After 24 h, transfection of the cells were performed with the GABABR2 construct. For generation of cell lines expressing GABABR2, GABABR2 plasmid (1 μg) and pOG44 from Invitrogen (9 μg) were mixed with 30 μl Lipofectamine 2000 in 600 μl OptiMEM for 20 minutes. The cells were exposed to transfection medium for 5 hours and was then replaced with culture medium. After 2 days 0.5 mg/ml Hygromycin were added to culture medium. The cells were cultured for an additional 10 days to establish a stable cell mix expressing GABABR2. For generation of a cell line expressing the GABABR1a/GABABR2 heterodimer, GABABR1a plasmid DNA (8 μg) and Lipofectamine (30 μl) were mixed in 600 μl OptiMEM and incubated for 20 minutes before added to CHO-Flp-In cells expressing GABABR2. After 2 days additional selection agent was added (0.8 mg/ml Geneticin). The cells were cultured for another 10 days to generate a stable mixed population expressing the GABABR1a/GABABR2 heterodimer. The cell line was analyzed by GTPγS^35 assay with GABA as agonist.
GTPγS^35 radioligand filtration-binding assays were performed using an automated workstation at 30° C. for 1 hour in assay buffer (50 mM HEPES, 40 mM NaCl, 1 mM MgCl2×6H2O, 30 μg/mL Saponin, pH 7.4 at RT) containing 0.025 μg/μL of membrane protein (prepared from the cell line described above), 10 μM GDP and 0.55 nCi/μL GTPγS^35 in a final volume of 60 μL. The reaction was started by the addition of compounds (GABA was always included as a positive control), start concentration 100 μM dilution factor 3. The reaction was terminated and membranes collected by addition of ice-cold wash buffer (50 mM Tris-HCl, 5 mM MgCl2×6H2O, 50 mM NaCl, pH 7.4 at 4° C.) followed by rapid filtration under vacuum through a MultiScreen HTS 384 FB filter plate. Repeated washing of the filters with ice-cold wash buffer washed the unbound radioligand away. The filter plates were dried for 1½-2 hours at 50° C., then 8 μL scintillation liquid was added per well followed by incubation at RT for at least 20 minutes before bound radioactivity was determined using a β-Liquid Scintillation Counter (1450 Microbeta Trilux, Wallac, Finland)
100% activation (max) is calculated as the mean value for wells containing 1 mM GABA. […]

[2] = target: T2, GABAB(1A,2) receptor heterodimer (Homo sapiens, UniProt O75899+Q9UBS5); assay: GTPγS35 radioligand filtration-binding assay for determination of PAM potency; assay type: biochemical; conditions: membranes of CHO-K1 cells expressing GABABR1a/GABABR2; concentration required to reduce GABA's EC50 by 50%; PAM at 10, 1, 0.1 and 0.01 μM; read-out: Mean (EC50 derived) PAM EC50
T2 construct: expressed in transfected cells; membrane preparation
Source text: The effect of GABA in an automated GTPγS^35 radioligand filtration-binding assay in CHO cells expressing the GABAB(1A,2) receptor heterodimer was studied in the presence or absence of the positive allosteric modulator test compounds. […]
as §1, §2
GABABR1a and GABABR2 were cloned from human brain cDNA and subcloned into pCI-Neo (Promega) and pALTER-1 (Promega), respectively.
In order to optimise the Kozak consensus sequence of GABABR2, in situ mutagenesis was performed using the Altered Sites Mutagenesis kit according to manufacturer's instruction (Promega) with the following primer,
5′-[…]-3′. The optimised GABABR2 was then restricted from pALTER-1 with Xho I+Kpn I and subcloned into the mammalian expression vector pcDNA3.1(−)/Zeo (Invitrogen) to produce the final construct, pcDNA3.1(−)/Zeo-GABABR2.
For generation of stable cell lines, CHO-K1 cells were grown in Nut mix F-12 (Ham) media supplemented with 10% FBS, 100 U/ml Penicillin and 100 μg/ml Streptomycin at 37° C. in a humidified CO2-incubator. The cells were detached with 1 mM EDTA in PBS and 1 million cells were seeded in 100 mm petri dishes. After 24 hours the culture media was replaced with OptiMEM and incubated for 1 hour in a CO2-incubator.
For generation of a cell line expressing the GABABR1a/GABABR2 heterodimer, GABABR1a plasmid DNA (4 μg) GABABR2 plasmid DNA (4 μg) and lipofectamine (24 μl) were mixed in 5 ml OptiMEM and incubated for 45 minutes at room temperature. The cells were exposed to the transfection medium for 5 hours, which then was replaced with culture medium. The cells were cultured for an additional 10 days before selection agents (300 μg/ml hygromycin and 400 μg/ml geneticin) were added. Twenty-four days after transfection, single cell sorting into 96-well plates by flow cytometry was performed using a FACS Vantage SE (Becton Dickinson, Palo Alto, Calif.). After expansion, the GABAB receptor functional response was tested by measuring the GABAB receptor dependent release of intracellular calcium in a fluorescence imaging plate reader (FLIPR). The clone with the highest functional response was collected, expanded and then subcloned by single cell sorting. The clonal cell line with the highest peak response in the FLIPR was used in the present study.
GTPγS^35 radioligand filtration-binding assays were performed using an automated workstation at 30° C. for 1 hour in assay buffer (50 mM HEPES, 40 mM NaCl, 1 mM MgCl2×6H2O, 30 μg/mL Saponin, pH 7.4 at RT) containing 0.025 μg/μL of membrane protein (prepared from the cell line described above), 10 μM GDP and 0.55 nCi/μL GTPγS^35 in a final volume of 60 μL. The reaction was started by the addition of serially diluted GABA (final start concentration 1 mM dilution factor 3) in the presence or absence of four concentrations (final conc 10, 1, 0.1 and 0.01 μM) of PAM. The reaction was terminated and membranes collected by addition of ice-cold wash buffer (50 mM Tris-HCl, 5 mM MgCl2×6H2O, 50 mM NaCl, pH 7.4 at 4° C.) followed by rapid filtration under vacuum through a MultiScreen HTS 384 FB filter plate. […]

T1 sequence (Q9UBS5 15-961 limits assumed): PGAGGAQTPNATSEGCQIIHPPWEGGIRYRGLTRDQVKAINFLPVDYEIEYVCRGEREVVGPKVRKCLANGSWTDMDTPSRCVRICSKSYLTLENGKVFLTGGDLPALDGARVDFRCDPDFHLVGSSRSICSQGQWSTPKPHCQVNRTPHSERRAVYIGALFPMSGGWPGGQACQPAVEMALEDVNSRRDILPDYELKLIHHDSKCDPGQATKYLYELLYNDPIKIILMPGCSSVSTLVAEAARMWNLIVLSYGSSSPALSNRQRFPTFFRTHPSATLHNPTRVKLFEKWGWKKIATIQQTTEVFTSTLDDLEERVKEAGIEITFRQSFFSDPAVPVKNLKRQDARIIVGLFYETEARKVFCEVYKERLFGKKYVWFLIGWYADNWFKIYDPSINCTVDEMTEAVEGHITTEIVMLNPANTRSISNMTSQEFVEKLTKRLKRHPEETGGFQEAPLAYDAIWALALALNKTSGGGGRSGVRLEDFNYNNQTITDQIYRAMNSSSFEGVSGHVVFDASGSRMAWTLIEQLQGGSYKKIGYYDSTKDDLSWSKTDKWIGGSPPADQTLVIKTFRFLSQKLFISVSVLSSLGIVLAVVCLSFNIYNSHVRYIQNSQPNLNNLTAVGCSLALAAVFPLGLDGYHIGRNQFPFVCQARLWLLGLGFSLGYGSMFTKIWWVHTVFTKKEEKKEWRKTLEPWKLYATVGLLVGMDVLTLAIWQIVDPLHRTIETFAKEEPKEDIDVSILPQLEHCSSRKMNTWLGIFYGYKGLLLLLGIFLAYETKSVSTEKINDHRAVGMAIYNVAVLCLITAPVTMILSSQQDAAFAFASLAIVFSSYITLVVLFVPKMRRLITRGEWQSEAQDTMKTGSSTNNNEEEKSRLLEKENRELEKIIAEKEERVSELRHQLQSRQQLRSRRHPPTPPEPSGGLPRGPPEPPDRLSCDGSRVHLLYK
T1 sequence (O75899 42-941): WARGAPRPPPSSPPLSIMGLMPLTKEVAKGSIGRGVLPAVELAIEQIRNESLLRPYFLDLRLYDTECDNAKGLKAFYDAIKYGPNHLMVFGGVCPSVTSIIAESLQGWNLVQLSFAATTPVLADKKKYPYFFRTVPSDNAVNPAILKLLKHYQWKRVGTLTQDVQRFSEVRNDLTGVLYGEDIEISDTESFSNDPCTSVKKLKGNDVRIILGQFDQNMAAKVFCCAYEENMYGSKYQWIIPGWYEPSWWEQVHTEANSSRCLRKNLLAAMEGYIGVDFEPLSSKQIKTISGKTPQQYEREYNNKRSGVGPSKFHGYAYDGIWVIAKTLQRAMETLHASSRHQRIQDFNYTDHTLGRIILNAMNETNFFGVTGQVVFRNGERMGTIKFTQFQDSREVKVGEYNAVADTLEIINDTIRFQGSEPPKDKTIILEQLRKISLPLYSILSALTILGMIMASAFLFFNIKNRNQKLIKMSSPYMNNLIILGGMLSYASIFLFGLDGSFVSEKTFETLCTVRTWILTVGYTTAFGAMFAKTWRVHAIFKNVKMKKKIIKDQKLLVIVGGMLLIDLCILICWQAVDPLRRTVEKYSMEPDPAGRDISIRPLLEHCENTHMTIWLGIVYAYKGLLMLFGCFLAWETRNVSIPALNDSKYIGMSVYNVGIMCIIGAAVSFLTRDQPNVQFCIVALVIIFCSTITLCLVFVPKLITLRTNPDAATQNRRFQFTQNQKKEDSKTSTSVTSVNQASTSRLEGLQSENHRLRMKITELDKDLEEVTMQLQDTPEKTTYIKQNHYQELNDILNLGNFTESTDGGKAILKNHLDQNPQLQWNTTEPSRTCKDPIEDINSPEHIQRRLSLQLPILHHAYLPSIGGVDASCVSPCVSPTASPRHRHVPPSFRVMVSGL
T2 sequence (Q9UBS5 15-961 limits assumed): as the sequence (Q9UBS5 15-961 limits assumed) above
T2 sequence (O75899 42-941): as the sequence (O75899 42-941) above

CCCn1c(=O)n(Cc2ccc(Cl)cc2)c(=O)c2nc(C)c(C)nc21 [Example 15, 3-(4-chlorobenzyl)-6,7-dimethyl-1-propylpteridine-2,4(1H,3H)-dione]
EC50 [1]: 36800 nM
EC50 [2]: 1300 nM

CCCn1c(=O)n(Cc2ccc(Cl)cc2)c(=O)c2nc3c(nc21)CCCC3 [Example 20, 3-(4-chlorobenzyl)-1-propyl-6,7,8,9-tetrahydrobenzo[g]pteridine-2,4(1H,3H)-dione]
EC50 [1]: 800 nM
EC50 [2]: 800 nM

CC(C)(C)CCn1c(=O)n(Cc2ccc(Cl)cc2)c(=O)c2nccnc21 [Example 6, 3-(4-chlorobenzyl)-1-(3,3-dimethylbutyl)pteridine-2,4(1H,3H)-dione]
EC50 [1]: 4700 nM
EC50 [2]: 800 nM

From patent publication US20090088439A1, “Diazinane Compounds” (priority 2007, published 2009)
